Several values for one entry are separate records, joined by “and”; a condition that tells them apart may be missing. Equal entries are not always repeated. Where two headings read alike, the source gives them in different places.
Experiments:
[1] = Population pharmacokinetic (PopPK) model of SAF-189s plasma concentrations (NONMEM); type: in vivo, human
Protocol: The population PK analysis included data from one phase I study of SAF-189s conducted with healthy subjects (study STL31147; n = 24) and one phase I/II study conducted with Chinese patients having ALK+/ROS1+ advanced NSCLC (study SAF001; n = 299). STL31147 was a single-center, randomized, open-label, two-period (fed and fasting), and two-sequence crossover study on healthy Chinese adults. The volunteers received SAF-189s at a dose of 160 mg orally once in each period, with a washout period of 14 days. Blood samples (3 mL) were collected after each SAF-189s administration at 0 (predose), 1, 2, 3, 4, 6, 8, 10, 12, 24, 48, 72, 120, and 168 h post dosing. SAF001 was a multicenter, open-label, and single-arm phase I/II study to evaluate the safety, tolerability, pharmacokinetics, and antitumor activity of SAF-189s in patients with advanced ALK+ NSCLC (phase I) and ALK+/ROS1+ NSCLC (phase II). In the dose escalation portion, the study treatment included a single-agent 3-day PK run-in period and a continuous treatment period. The dosing regimens were 20, 40, 80, 120, 160, and 210 mg QD for 21 days in 21-day cycles during the continuous treatment period. In phase II, the patients received 80, 120, 160, and 210 mg of SAF-189s (phase IIa) or 160 mg (phase IIb) QD over 21-day cycles.
All studies were conducted in accordance with the Good Clinical Practice guidelines and Declaration of Helsinki. The protocols were approved by the independent ethics committee of each investigation site, and all subjects provided informed consent. The tumor responses were assessed by the IRC based on the Response Evaluation Criteria in Solid Tumors (RECIST) 1.1 conditions. The exposure–efficacy analyses of SAF-189s were conducted based on data from patients in the SAF001 study to explore the relationships between systemic exposure and efficacy endpoints, including the ORR, PFS, and duration of response (DOR). The exposure–safety analyses of SAF-189s were conducted based on data from patients in the SAF001 study to explore the relationships between the systemic exposure and safety endpoints, including the adverse events (AEs) of interest. In these studies, the SAF-189s plasma concentrations were analyzed using validated liquid chromatography tandem mass spectrometry within the assay range of 0.5–150 ng mL^–1.
Dataset preparation and exploratory graphical analyses were performed using R (version 4.2.0) and SAS® (version 9.4, Institute Inc., Cary, NC, United States). The PK data of SAF-189s were pooled and analyzed using a non-linear mixed-effects model. The PopPK analysis was conducted using NONMEM® software (version 7.3, ICON, Hanover, MD, United States) with first-order conditional estimations with interactions (FOCE-I). Following graphical exploratory analysis, one- and two-compartment models were evaluated; several absorption models were then tested, including first-order, zero-order, sequential zero- and first-order, and parallel first-order models with and without a lag absorption time; based on the characteristics of the elimination phase of the concentration–time profiles of SAF-189s, the linear, non-linear, and time-dependent elimination models ([Lau et al., 2019]; [Kratochwil et al., 2021]) were investigated. Interindividual variance (IIV) was then described as a log-normal distribution, and the covariance between the IIV parameters was assessed. Residual variability was assessed by comparing the proportional, additive, and combined error models. Owing to the low proportion (<1%) of post-administration samples with concentrations below the quantification limit (BQL) of the assay, the BQL data were excluded from the PopPK model development. Model selection was based on the objective function value (OFV), goodness-of-fit (GOF) plot, and robustness of parameter estimates. The ETA shrinkage was also taken into consideration when evaluating the models.
The covariates were prespecified based on their physiological and clinical relevance. […]

efflux transporter P-gp = conditions: in vitro studies, no reference given; cited from earlier work
[2] = previous NCA results, no reference given, cited from earlier work
[3] = 5th percentile age (25 years) vs median age (53 years)
[4] = 95th percentile age (71 years) vs median age (53 years)
[5] = ALKPOT 2 or 3 or 4 vs reference 1
[6] = ALKPOT 6 (healthy) vs reference 1
[7] = age 25 year vs reference 53 year, Figure 4
[8] = age 71 year vs reference 53 year, Figure 4

**Q.** With `Cc1cc(Nc2ncc(Cl)c(Nc3ccccc3S(=O)(=O)C(C)C)n2)c2c(c1C1CCN(C)CC1)C[C@@H](C)O2` [SAF-189s] as the compound, how does the AUCss geometric mean ([1]; 160 mg QD dose) read?
**A.** 2,374 ng∙h mL^–1

**Q.** And the AUC decrease [1, 3]?
**A.** 21%

**Q.** And the CL/F increase [1, 3]?
**A.** 27%

**Q.** What about the AUC increase [1, 4] of the same compound?
**A.** 10%

**Q.** And the CL/F decrease [1, 4]?
**A.** 8.8%

**Q.** And the “AUCss(ug*h/L) Ratio” value [1, 5]?
**A.** 1.18

**Q.** What about the “V/F(L) Ratio” value [1, 5] of the same compound?
**A.** 0.734

**Q.** And the “AUCss(ug*h/L) Ratio” value ([1]; ALKPOT 5 (ROS1) vs reference 1)?
**A.** 1.06

**Q.** What about the “V/F(L) Ratio” value ([1]; ALKPOT 5 (ROS1) vs reference 1) of the same compound?
**A.** 0.917

**Q.** And the “AUCss(ug*h/L) Ratio” value [1, 6]?
**A.** 0.979

**Q.** And the “V/F(L) Ratio” value [1, 6]?
**A.** 0.784

**Q.** And the AUCss higher ([1]; ALKPOT = 2, 3, 4 compared to ALKPOT = 1)?
**A.** 18%

**Q.** And the V/F reduction ([1]; ALKPOT = 2, 3, 4 relative to ALKPOT = 1)?
**A.** 26.6%

**Q.** What about the AUCss higher ([1]; ALKPOT = 5 compared to ALKPOT = 1) of the same compound?
**A.** 6%

**Q.** And the V/F reduction ([1]; ALKPOT = 5 relative to ALKPOT = 1)?
**A.** 8.3%

**Q.** What about the V/F reduction ([1]; ALKPOT = 6 (healthy subjects) relative to ALKPOT = 1) of the same compound?
**A.** 21.6%

**Q.** And the AUCss lower ([1]; ALKPOT = 6 compared to ALKPOT = 1)?
**A.** 2.1%

**Q.** What about the “effect of prior anticancer therapy on AUCss” value ([1]; ALKPOT covariate) of the same compound?
**A.** less than 20%

**Q.** And the half-life ([1]; after the first dose, typical subjects (median age 53 years, ALK+ without previous ALK inhibitor treatment))?
**A.** 34.6 h

**Q.** What about the “AUCss(ug*h/L) Ratio” value [1, 7] of the same compound?
**A.** 0.79

**Q.** And the “CL/F(L/h) Ratio” value [1, 7]?
**A.** 1.27

**Q.** And the “AUCss(ug*h/L) Ratio” value [1, 8]?
**A.** 1.1

**Q.** What about the “CL/F(L/h) Ratio” value [1, 8] of the same compound?
**A.** 0.912

**Q.** And the AUCss median value ([1]; exposure–safety analysis, all patients)?
**A.** 2,233 ng∙h mL^–1

**Q.** And the “ALAG1 (tlag) typical value” ([1]; final PopPK model estimate)?
**A.** 0.483 (±0.0306) h and 0.483 h

**Q.** What about the CL1/F typical value ([1]; final PopPK model estimate) of the same compound?
**A.** 64 (±1.51) L h^–1 and 64 L h^–1

**Q.** What about the CL2/F typical value ([1]; final PopPK model estimate) of the same compound?
**A.** 40.3 (±6.89) L h^–1 and 40.3 L h^–1

**Q.** And the KA typical value ([1]; final PopPK model estimate)?
**A.** 0.501 (±0.0444) h^−1

**Q.** What about the V/F typical value ([1]; final PopPK model estimate) of the same compound?
**A.** 5,210(±339) L and 5,210 L

**Q.** And the KA typical value ([1]; final PopPK model estimate, Table 2)?
**A.** 0.501 L h^–1

**Q.** What about the “Interindividual variability ω^2 ALAG1” value ([1]; final model estimate) of the same compound?
**A.** 0.12

**Q.** What about the “Interindividual variability ω^2 CL” value ([1]; final model estimate) of the same compound?
**A.** 0.138

**Q.** What about the “Interindividual variability ω^2 KA” value ([1]; final model estimate) of the same compound?
**A.** 0.279

**Q.** What about the “Interindividual variability ω^2 V” value ([1]; final model estimate) of the same compound?
**A.** 0.125

**Q.** What about the “ALKPOT = 6 on V/F” value ([1]; healthy subjects, final model estimate) of the same compound?
**A.** 0.784

**Q.** What about the ALAG1 bootstrap estimate ([1]; non-parametric bootstrap) of the same compound?
**A.** 0.491 h

**Q.** What about the “ALKPOT = 2,3,4 on V/F bootstrap estimate” value ([1]; non-parametric bootstrap) of the same compound?
**A.** 0.724

**Q.** And the “ALKPOT = 5 on V/F bootstrap estimate” value ([1]; non-parametric bootstrap)?
**A.** 0.905

**Q.** What about the “ALKPOT = 6 on V/F bootstrap estimate” value ([1]; non-parametric bootstrap) of the same compound?
**A.** 0.782

**Q.** What about the CL1/F bootstrap estimate ([1]; non-parametric bootstrap) of the same compound?
**A.** 64 L h^–1

**Q.** And the CL2/F bootstrap estimate ([1]; non-parametric bootstrap)?
**A.** 40.5 L h^–1

**Q.** What about the “Interindividual variability ω^2 ALAG1 bootstrap estimate” value ([1]; non-parametric bootstrap) of the same compound?
**A.** 0.106

**Q.** What about the “Interindividual variability ω^2 CL bootstrap estimate” value ([1]; non-parametric bootstrap) of the same compound?
**A.** 0.138

**Q.** What about the “Interindividual variability ω^2 KA bootstrap estimate” value ([1]; non-parametric bootstrap) of the same compound?
**A.** 0.276

**Q.** And the “Interindividual variability ω^2 V bootstrap estimate” value ([1]; non-parametric bootstrap)?
**A.** 0.121

**Q.** What about the KA bootstrap estimate ([1]; non-parametric bootstrap) of the same compound?
**A.** 0.504 L h^–1

**Q.** What about the Kout bootstrap estimate ([1]; non-parametric bootstrap) of the same compound?
**A.** 1.35 day⁻¹

**Q.** What about the V/F bootstrap estimate ([1]; non-parametric bootstrap) of the same compound?
**A.** 5,199 L

**Q.** And the “ALKPOT = 5 on V/F” value ([1]; others (ROS1+ patients or unknown), final model estimate)?
**A.** 0.917

**Q.** What about the “ALKPOT = 2,3,4 on V/F” value ([1]; patients with previous ALK inhibitor treatment, final model estimate) of the same compound?
**A.** 0.734

**Q.** What about the “Cmin,ss” value ([1]; quartile 1, estimated using the most prevalent dose) of the same compound?
**A.** 18–60.7 ng mL^–1

**Q.** What about the “Cmin,ss” value ([1]; quartile 2, estimated using the most prevalent dose) of the same compound?
**A.** 60.7–79 ng mL^–1

**Q.** What about the “Cmin,ss” value ([1]; quartile 3, estimated using the most prevalent dose) of the same compound?
**A.** 79–108 ng mL^–1

**Q.** What about the “Cmin,ss” value ([1]; quartile 4, estimated using the most prevalent dose) of the same compound?
**A.** 108–182 ng mL^–1

**Q.** What about the half-life ([1]; steady state after multiple administrations, typical subjects) of the same compound?
**A.** approximately 56.4 h

**Q.** What about the Kout ([1]; time-varying inhibition rate constant) of the same compound?
**A.** 1.35 (±0.421) day^−1

**Q.** And the Kout typical value ([1]; time-varying inhibition rate constant, Table 2)?
**A.** 1.35 day⁻¹

**Q.** And the P-gp inhibitor (efflux transporter P-gp)?
**A.** inhibitor

**Q.** What about the P-gp substrate (efflux transporter P-gp) of the same compound?
**A.** substrate

**Q.** And the “apparent clearance (CL/F)” value ([2]; after multiple doses at 20 mg once daily)?
**A.** 132 L h^–1

**Q.** What about the “apparent clearance (CL/F)” value ([2]; after multiple doses at 210 mg once daily) of the same compound?
**A.** 58.3 L h^–1

Source: PMC11286589, “Population pharmacokinetics and exposure–response analyses of SAF-189s in Chinese patients with ALK+/ROS1+ non-small cell lung cancer” (Frontiers in Pharmacology, 2024)
